These results are taken from ChEMBL document CHEMBL1150258, “Predicting binding modes from free energy calculations” (J Med Chem, 2008).

In the assay the target is Human immunodeficiency virus type 1 reverse transcriptase (Human immunodeficiency virus 1, UniProt Q72547). Put plainly: Inhibition of HIV1 reverse transcriptase in […]. In kind it is cell-based.
`CCCC(=O)Nc1c(Cc2cc(C)cc(C)c2)c(CC)c(C)[nH]c1=O`: half-maximal inhibition (IC50) required 100 µM. For the compound `CCc1c(C)[nH]c(=O)c(N(C)CCC#N)c1Cc1cccc(C)c1`, half-maximal inhibition (IC50) required 0.016 µM. Against the preceding compound, the IC50 is about 6200-fold lower. For `CCc1c(C)[nH]c(=O)c(NC(=S)Nc2ccccc2)c1Cc1cccc(C)c1`, inhibition was half-maximal at 3.16 µM (IC50). This IC50 lies about 200-fold higher than the previous one.

Compound `CCCCNc1c(Cc2cc(C)cc(C)c2)c(CC)c(C)[nH]c1=O` yielded a concentration for half-maximal inhibition (IC50) of 0.126 µM. Compared with the last compound, the IC50 is about 25-fold lower. To `CCc1c(C)[nH]c(=O)c(N(C)CCCC#N)c1Cc1cccc(C)c1` belongs 0.005 µM; to `CCCCN(CCCC)c1c(Cc2cc(C)cc(C)c2)c(CC)c(C)[nH]c1=O`, 50.1 µM. The same measure for `CCc1c(C)[nH]c(=O)c(N(C)CCOC)c1Cc1cc(C)cc(C)c1`: 0.002 µM. To `CCc1c(C)[nH]c(=O)c(N(C)CCCCCO)c1Cc1cccc(C)c1` belongs 0.01 µM; to `CCc1c(C)[nH]c(=O)c(NC)c1Cc1cc(C)cc(C)c1`, 0.01 µM; to `CCc1c(C)[nH]c(=O)c(NCc2ccccc2)c1Cc1cc(C)cc(C)c1`, 0.251 µM.

Take `CCCNc1c(Cc2cc(C)cc(C)c2)c(CC)c(C)[nH]c1=O`: the concentration for half-maximal inhibition (IC50) was 0.02 µM. `CCc1c(C)[nH]c(=O)c(N(C)CC)c1Cc1cc(C)cc(C)c1` yielded an IC50 of 0.008 µM. `CCc1c(C)[nH]c(=O)c(N(C)CC#N)c1Cc1cccc(C)c1`: the half-inhibitory concentration (IC50) was 0.004 µM. Against the preceding compound, the IC50 is about 2-fold lower. Take `CCc1c(C)[nH]c(=O)c(N(C)CC)c1Cc1cccc(/C=C/C#N)c1`: 0.001 µM corresponded to half-maximal inhibition (IC50). `CCc1c(C)[nH]c(=O)c(N(CC)CC)c1Cc1cc(C)cc(C)c1` yielded a concentration for half-maximal inhibition (IC50) of 0.016 µM.

On to `CCNC(=S)Nc1c(Cc2cccc(C)c2)c(CC)c(C)[nH]c1=O`, for which the IC50 was 25.1 µM.

Take `CCOCCN(C)c1c(Cc2cccc(C)c2)c(CC)c(C)[nH]c1=O`: the midpoint of inhibition, the IC50, lay at 0.013 µM.

`CCc1c(C)[nH]c(=O)c(N(C)CCCSC)c1Cc1cc(C)cc(C)c1` registered a half-inhibitory concentration (IC50) of 0.025 µM.

The compound `CCc1c(C)[nH]c(=O)c(N(C)CCOC)c1Cc1cccc(C)c1` returned an IC50 of 0.001 µM. For the compound `CCc1c(C)[nH]c(=O)c(N(Cc2ccccc2)Cc2ccccc2)c1Cc1cc(C)cc(C)c1`, the IC50 was 100 µM. On to `CCc1c(C)[nH]c(=O)c(N(C)CCCCCO)c1Cc1cc(C)cc(C)c1`, for which the IC50 is 0.004 µM. Against the preceding compound, the IC50 is about 25000-fold lower. Compound `CCCN(C)c1c(Cc2cc(C)cc(C)c2)c(CC)c(C)[nH]c1=O` showed an IC50 of 0.016 µM. For `CCc1c(C)[nH]c(=O)c(N(C)CCO)c1Cc1cccc(C)c1`, inhibition was half-maximal at 0.005 µM (IC50).

Consider `CCc1c(C)[nH]c(=O)c(N(C)CCOC)c1Cc1cccc(/C=C/C#N)c1`, for which the IC50 worked out at 0.001 µM. Against the preceding compound, the IC50 is about 5-fold lower. On to `CCc1c(C)[nH]c(=O)c(N(C)CCCO)c1Cc1cccc(C)c1`, for which 0.003 µM corresponded to half-maximal inhibition (IC50). The compound `CCc1c(C)[nH]c(=O)c(-n2cccc2)c1Cc1cc(C)cc(C)c1` showed a 50% inhibitory concentration (IC50) of 0.0126 µM. To `CCc1c(C)[nH]c(=O)c(N(C)C(C)COC)c1Cc1cc(C)cc(C)c1` (centres undefined) belongs 0.006 µM; to `CCc1c(C)[nH]c(=O)c(N2CCCCC2)c1Cc1cc(C)cc(C)c1`, 0.631 µM; to `CCC(=O)Nc1c(Cc2cc(C)cc(C)c2)c(CC)c(C)[nH]c1=O`, 3.98 µM. In the case of `CCc1c(C)[nH]c(=O)c(N2CCOCC2)c1Cc1cc(C)cc(C)c1`, the half-maximal inhibitory concentration (IC50) stood at 0.158 µM. `CCc1c(C)[nH]c(=O)c(NC(N)=S)c1Cc1cccc(C)c1` showed an IC50 of 0.316 µM. On to `CCc1c(C)[nH]c(=O)c(NC(C)=O)c1Cc1cc(C)cc(C)c1`, for which the half-inhibitory concentration (IC50) worked out at 0.398 µM. In turn, `CCc1c(C)[nH]c(=O)c(NC=O)c1Cc1cc(C)cc(C)c1` gave a half-inhibitory concentration (IC50) of 0.079 µM. This IC50 lies about 5-fold lower than the previous one. Compound `CCNc1c(Cc2cc(C)cc(C)c2)c(CC)c(C)[nH]c1=O` gave a half-maximal inhibitory concentration (IC50) of 0.016 µM.
